The nature of data set [1]: Plasma pharmacokinetics after single oral administration to mice. In kind it is in vivo. The note with it: male, CD1, mouse, single oral dose (Dose_PO: 10.0-90.0 mg/kg). From the text:
The purpose of this study was to evaluate plasma and tissue exposure of the following compounds after a single oral administration to mice: • 7-(3-(N-(4-fluoro-2,6-dimethylphenyl)sulfamoyl)phenyl)heptanoic acid (indicated below as DFL23806), • 7-(3-(N-(4-chloro-2,6-dimethylphenyl)sulfamoyl)phenyl)heptanoic acid (indicated below as DFL23914) • 7-(3-(N-(2,6-dimethyl-4-(trifluoromethyl)phenyl)sulfamoyl)phenyl)heptanoic acid (indicated below as DFL23922) • 7-(3-(N-(6-fluoro-4-methyl-[1,1′-biphenyl]-3-yl)sulfamoyl)phenyl)heptanoic acid (indicated below as DFL23916) • 7-(3-(N-(5-fluoro-3-methyl-[1,1′-biphenyl]-2-yl)sulfamoyl)phenyl)heptanoic acid (indicated below as DFL23917) • 7-(3-{[4-fluoro-2-methyl-5-(thiophen-2-yl)phenyl]sulfamoyl}phenyl)heptanoic acid (indicated below as DFL24102) […]
A retro-orbital, composite blood sampling at pre-dose or after dosing at 30 min, 1, 2, 6, 8 and 24 hours (three mice/time point) was carried out for the plasma pharmacokinetic assessment. Blood samples were collected in heparinized collection tubes. Samples were taken immediately onto ice and kept cool until centrifugation (10000 g for 3 minutes at about +4° C.). About 50 μL of plasma were stored in a freezer at −80° C. pending analysis.
After samples collection, bioanalysis for concentrations of the test compounds were done using HPLC-MS/MS methods and pharmacokinetic analysis of the compounds in plasma and tissues was performed according to standard non-compartmental approach using Watson system (v 7.6, Thermo Fisher Scientific Waltham, MA, USA) on mean concentration data.

For another data set, the system named is DSS-induced colitis. Nature of the data set: Mouse model of Dextran Sodium Sulfate-induced colitis. In kind it is in vivo, female C57/B16 mice. The conditions noted are these: day 39. The source says:
A mouse model of colitis induced by administration of Dextran Sodium Sulfate (DSS) (Wirtz S. et al. Nature Protocols; Volume: 2, Issue: 3 Pages: 541-546; 2007) was used to study the therapeutic effect of oral administration of DFL23806 on colitis.
In details, 8- to 12-week-old female C57/B16 mice were subjected to 3 oral cycles of 2.5% Dextran Sodium Sulfate (DSS) in drinking water (molecular mass, 40 kDa; MP Biomedicals), each cycle characterized by 7 days of DSS administration followed by 7 days of filter-purified water.
From day 3 of DSS administration, the mice were divided in 4 experimental groups, each receiving the treatment specified below: • Group 1: DSS (n=8)
No treatment, used as negative control. • Group 2: DSS+Vehicle (n=8)
Treated with 20% v/v Dimethyl Sulfoxide (DMSO) and 80% v/v Phosphate Buffered Saline (PBS), 0.1 M, pH 8 (Vehicle), used as a negative control. • Group 3: DSS+DFL 90 mg/kg (n=8)
Treated with DFL23806 dissolved in Vehicle, at the dosage of 90 mg/kg once a day. • Group 4: DSS+5-ASA 60 mg/kg (n=8)
Treated with 5-aminosalicylic acid (5-ASA) in Vehicle, at the dosage of 60 mg/Kg once a day, used as reference positive control.
Vehicle, DFL23806 and 5-ASA were administered daily, in the morning, by oral gavage, using plastic sterile feeding tubes 20 ga×30 mm. All mice were sacrificed on day 39.
A DAI score was established based on a scale that considers different parameters characterizing experimental colitis induction and progression (R S Walmsley et al. Gut 1998; 43:29-32).
Body weight, presence of gross blood in the feces, and stool consistency were recorded every 2 days. In details, the DAI was determined at each time point by scoring changes in weight loss (0=none, 1=1%-5%, 2=5%-10%, 3=10%-20%, 4=>20%); stool consistency (0=normal, 2=loose, 4=diarrhea); and rectal bleeding (0=normal, 2=occult bleeding, 4=gross bleeding).
Mice were sacrificed at day 39, colon were collected and colon lengths measured for each mouse, as additional parameter of intestinal inflammation.
The day of sacrifice (day 39), mice were anesthetized with 2% isoflurane and subjected to endoscopy, to confirm the inflammatory grade. The experimental endoscopy setup, denoted “Coloview system”, consisted of a miniature endoscope (scope 1.9 mm outer diameter), a xenon light source, a triple chip camera, and an air pump (all from Karl Storz, Tuttlingen, Germany) to achieve regulated inflation of the mouse colon. The endoscopic procedure was viewed on a colour monitor and a modified murine endoscopic index score of colitis severity was assigned on the basis of colon translucency (0-3 points), granular features of the mucosa (0-3 points), morphology of the vascular pattern (0-4 points), and the presence of fibrin (0-4 points), as previously described by Dr. D'Alessio (D'Alessio, S. et al. J. Clin. Invest. 124, 3863-3878; 2014) leading to a cumulative score between 0 (no signs of inflammation) and […] (endoscopic signs of very severe inflammation).
Histological analysis has been performed by an expert pathologist, in a blinded fashion, to grade the intestinal inflammation. More in details, colons of colitic mice in the various experimental groups have been evaluated for histological analyses using […] paraffin-embedded sections, stained with hematoxylin (Dako) and eosin (Diapath). A blinded pathologist evaluated the degree of inflammatory cell infiltration and mucosal damage, using the RACHMILEWITZ score (Table 1) (Rachmilewitz, D. et al. Gastroenterology 122, 1428-1441; 2002).

The target in a further data set is T1, GPR40 (Mus musculus, UniProt Q76JU9).
T1 construct: Colon lysates (˜900 μg proteins) from 6 mice of each experimental group were pooled; from tissue; host or cells: mouse colon (DSS colitis model)
T1 sequence (Q76JU9 whole entry): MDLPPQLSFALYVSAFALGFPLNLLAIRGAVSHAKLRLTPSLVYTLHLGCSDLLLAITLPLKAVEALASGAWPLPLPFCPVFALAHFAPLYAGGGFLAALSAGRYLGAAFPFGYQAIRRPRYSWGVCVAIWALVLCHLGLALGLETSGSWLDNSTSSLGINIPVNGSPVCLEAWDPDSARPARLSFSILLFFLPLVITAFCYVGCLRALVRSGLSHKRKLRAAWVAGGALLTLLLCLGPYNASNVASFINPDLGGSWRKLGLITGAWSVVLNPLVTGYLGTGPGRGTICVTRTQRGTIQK
Briefly: Co-immunoprecipitation of β-arrestin 2 with GPR40 in colon lysates of DSS mice. Format: in vivo. The conditions noted are these: pooled colon lysates, day 39; compared to DSS or DSS+vehicle. As for the experimental part:
The efficiency of DFL in activating the GPR120 and/or GPR40 receptors was tested.
Agonist-induced GPR120 can engage multiple signalling pathways to regulate distinct physiological outcomes. After ligand binding, B-arrestins, such as B-arrestin 2 can associate with the cytoplasmic domains of GPR120 and couple the receptor to specific downstream signaling pathways (FIG. 9). For this reason, we verified the agonist efficiency in activating GPR120 and GPR40 by immunoprecipitation. Colon lysates (˜900 μg proteins) from 6 mice of each experimental group were pooled, precleared with protein A/G plus-agarose (Santa Cruz) and then incubated with the antibody used for immunoprecipitation (anti-GPR120 or anti-GPR40, Abcam) at 4° C. for 16 h, followed by incubation with protein A/G plus-agarose for 5 h. The agarose beads were then collected by centrifugation, washed four times with lysis buffer, and heated to 95° C. for 5 min after adding Laemmli buffer. The resulting immunoprecipitates were separated by SDS-PAGE and probed with the anti-β-arrestin 2 antibody (Santa Cruz).
Upon western blotting, a densitometric analysis of the blots was performed using Image J. FIGS. 10 and 11 show the ratio between co-immunoprecipitated β-arrestin 2 and GPR120 (FIG. 10) or GPR40 levels (FIG. 11) and the results of the blotting.

Setting [2] is: colon, DFL 90 mg/kg, 5-ASA 60 mg/kg, compared with DSS+Vehicle.
Setting [3] is: DFL23806 90 mg/kg, 5-ASA 60 mg/kg oral once a day, compared to DSS and DSS+Vehicle.

As usually defined, the AUC(0-inf) is total exposure, with the tail of the curve extrapolated. A word on the AUC(0-t): it is the area under the concentration-time curve up to a stated or last time point. Low values mean low exposure, high ones high exposure. For orientation: Cmax means the highest concentration seen after dosing. By Tmax is commonly meant the time at which the peak concentration occurs. The term half-life denotes how long it takes for the measured level to halve. Read a low half-life as fast loss.

As for `Cc1cc(F)cc(-c2ccccc2)c1NS(=O)(=O)c1cccc(CCCCCCC(=O)O)c1` [DFL23917, 7-(3-(N-(5-fluoro-3-methyl-[1,1′-biphenyl]-2-yl)sulfamoyl)phenyl)heptanoic acid], in data set [1], the AUC(0-inf) stood at 402 ng·h/mL, the AUC(0-t) worked out at 378 ng·h/mL, the highest level (Cmax) was 135 ng/mL and the time to peak (Tmax) was 0.5 h. For the same compound, the half-life in data set [1] was 1.3 h.

In the case of `Cc1cc(C(F)(F)F)cc(C)c1NS(=O)(=O)c1cccc(CCCCCCC(=O)O)c1` [DFL23922, 7-(3-(N-(2,6-dimethyl-4-(trifluoromethyl)phenyl)sulfamoyl)phenyl)heptanoic acid], in data set [1], the AUC(0-inf) is 217 ng·h/mL, the exposure AUC(0-t) turned out to be 201 ng·h/mL, the Cmax was determined as 123 ng/mL and the Tmax came out at 1.4 h. The same compound gave a half-life in data set [1] of 1.5 h.

As to `Cc1cc(F)c(-c2cccs2)cc1NS(=O)(=O)c1cccc(CCCCCCC(=O)O)c1` [DFL24102, 7-(3-{[4-fluoro-2-methyl-5-(thiophen-2-yl)phenyl]sulfamoyl}phenyl)heptanoic acid], in data set [1], the AUC(0-inf) is 302 ng·h/mL, the AUC(0-t) turned out to be 278 ng·h/mL, the Cmax was 113 ng/mL and the time of peak concentration (Tmax) turned out to be 1 h. The half-life in data set [1] is 1.9 h.

`Cc1cc(F)c(-c2ccccc2)cc1NS(=O)(=O)c1cccc(CCCCCCC(=O)O)c1` [DFL23916, 7-(3-(N-(6-fluoro-4-methyl-[1,1′-biphenyl]-3-yl)sulfamoyl)phenyl)heptanoic acid]: in data set [1], the AUC(0-inf) stood at 571 ng·h/mL, the AUC(0-t) came out at 480 ng·h/mL, the Cmax was 198 ng/mL and the Tmax was found to be 0.4 h. In addition, the half-life in data set [1] is 2.2 h.

With `Cc1cc(Cl)cc(C)c1NS(=O)(=O)c1cccc(CCCCCCC(=O)O)c1` [DFL23914, 7-(3-(N-(4-chloro-2,6-dimethylphenyl)sulfamoyl)phenyl)heptanoic acid], in data set [1], the AUC(0-inf) came to 230 ng·h/mL, the exposure AUC(0-t) worked out at 189 ng·h/mL, the concentration peaked (Cmax) at 45 ng/mL and the Tmax was determined as 2 h. Moreover, the half-life in data set [1] was 1.2 h.

As to `Nc1ccc(O)c(C(=O)O)c1` [5-ASA, 5-aminosalicylic acid, reference compound], in the data set on DSS-induced colitis (setting [2]), the “histological score (Rachmilewitz) for extent of flogosis” value is “significantly reduced the histological score”, the “histological score (Rachmilewitz) for extent of ulceration” value is given as “significantly reduced the histological score”, the “histological score (Rachmilewitz) for flogosis” value is recorded as “significantly reduced the histological score” and the “histological score (Rachmilewitz) for ulceration” value was “significantly reduced the histological score”. Moreover, in the data set with DSS-induced colitis (setting [3]), the composite endoscopic score entry was “significantly inhibit chronic experimental colitis”, the “endoscopic score: colon thickness” value is “significantly inhibit chronic experimental colitis”, the “endoscopic score: mucosal surface granularity” value is “significantly inhibit chronic experimental colitis” and the “endoscopic score: vascular pattern” value is listed as “significantly inhibit chronic experimental colitis”. For the same compound, the “endoscopic score: visible fibrin” value with DSS-induced colitis (setting [3]) is recorded as “significantly inhibit chronic experimental colitis”. Besides, the colon length result in the data set with DSS-induced colitis (DFL23806 90 mg/kg, 5-ASA 60 mg/kg oral once a day, compared to DSS+vehicle) was “significant inhibitory effect”. On GPR40, the “GPR40 and β-arrestin 2 association (ratio co-immunoprecipitated β-arrestin 2 / GPR40)” value is recorded as “no increase”.
